# Data: ChEMBL document CHEMBL1136708, “Structure-based design of inhibitors of human L-xylulose reductase modelled into the active site of the enzyme” (Bioorg Med Chem Lett, 2003)
# Target: L-xylulose reductase (Homo sapiens) (UniProt Q7Z4W1)
# Sequence (Q7Z4W1 whole entry): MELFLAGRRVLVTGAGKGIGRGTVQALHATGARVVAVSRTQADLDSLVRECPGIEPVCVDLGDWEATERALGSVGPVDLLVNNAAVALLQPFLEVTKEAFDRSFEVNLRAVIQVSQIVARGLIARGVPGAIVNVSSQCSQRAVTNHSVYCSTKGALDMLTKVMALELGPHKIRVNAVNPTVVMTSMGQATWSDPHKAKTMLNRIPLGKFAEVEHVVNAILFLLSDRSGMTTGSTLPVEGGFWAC
row,SMILES,Protein interaction energy
1,O=C(O)CC(C(=O)O)C(=O)O,-163 kcal/M
2,CCCC(=O)O,-40.4 kcal/M
3,CCCc1ccc(O)cc1,-26.9 kcal/M
4,CO[PH](O)(O)OCC(=O)O,-114 kcal/M
5,CCC(O)C(=O)O (stereo not given),-38.4 kcal/M

# More lines, now with the values ahead:
row,Protein interaction energy,SMILES
1,-87.4 kcal/M,CCCOP(=O)(O)O
2,-114 kcal/M,O=C(O)CCC(=O)O
3,-51.6 kcal/M,CCC(C(=O)O)c1ccc(O)cc1 (stereo not given)
4,-41.4 kcal/M,CCC(CO)C(=O)O (stereo not given)

# Target: L-xylulose reductase (Homo sapiens) (UniProt Q7Z4W1)
# Experiment: Protein interaction energy by using binding affinity towards human L-xylulose reductase enzyme
row,Protein interaction energy,SMILES
1,-86.7 kcal/M,CCC(C(=O)O)C(=O)O
